How the values were obtained:
PI3K α = molecular target: T1, PI3K α (Homo sapiens, UniProt P42336); experiment: PI3K α kinase inhibition assay; assay type: biochemical
T1 construct: purchased Upstate

xenograft tumors = experiment: Tumor volume of xenograft tumors in female nude athymic mice; assay type: in vivo, mouse; conditions: U87-MG, A549, ZR-75-1, or 786-0 tumor cells
Method: For example, treatment with one or more compounds of the invention results in a reduction in the growth or tumor volume caused by engraftment of U87-MG, A549, ZR-75-1, or 786-0 tumor cells in nude mice. The compounds of the invention may be administered orally, subcutaneously, or intravenously, or any other compound administration methods provided herein. In some cases, the compounds are administered once a week, every other day, once a day, twice a day, three times a day, four times a day or more. In some cases, 0.01 mg/kg of compound is administered, 0.05 mg/kg, 0.1 mg/kg, 0.2 mg/kg, 0.4 mg/kg, 0.5 mg/kg, 1 mg/kg, 1.5 mg/kg, 2 mg/kg, 3 mg/kg, 4 mg/kg, 5 mg/kg, 7.5 mg/kg, 10 mg/kg, 100 mg/kg or more compound is administered at a time. In some cases, a significant reduction in tumor volume may be detected within 5, 10, 15, 20, 25, or 30 days of tumor engraftment.
Mice are inoculated subcutaneously in the right flank with 0.01 to 0.5 ml of tumor cells such as those listed above (approximately 1.0×10^5 to 1.0×10^8 cells/mouse). Five to 10 days following inoculation, tumors are measured using calipers and tumor weight is calculated, for example using the animal study management software, such as Study Director V.1.6.70 (Study Log). […] Body weights are recorded when the mice are pair-matched. […]

[1] = test system: HCT116 cells or SW620 cells; experiment: Cell cycle progression, G0/G1 arrest; assay type: cell-based; conditions: compared to an inhibitor that inhibits one or more PI3-kinases
Method: FIG. 9A-9B depict the effects of a compound of Table 1 of the present invention on cell cycle progression in HCT116 and SW620 cells as compared to various other compounds. FIG. 9A depicts the inhibiting effect of the compound at 500 nM on cell cycle progression as compared to DMSO vehicle control and as compared to 10 uM doxorubicin. FIG. 9B depicts the effect of the indicated compounds on the population of cells residing in G0/G1 phase during culture for two different cell lines.
In some embodiments, one or more compounds of the invention including those in Table 1 may cause cell cycle arrest. […] In some cases, about 35%, 40%, 50%, 55%, 60%, 65%, 70% or more of cells treated with one or more compounds of the invention may be in the G0/G1 cell cycle stage.

T1 sequence (P42336 whole entry): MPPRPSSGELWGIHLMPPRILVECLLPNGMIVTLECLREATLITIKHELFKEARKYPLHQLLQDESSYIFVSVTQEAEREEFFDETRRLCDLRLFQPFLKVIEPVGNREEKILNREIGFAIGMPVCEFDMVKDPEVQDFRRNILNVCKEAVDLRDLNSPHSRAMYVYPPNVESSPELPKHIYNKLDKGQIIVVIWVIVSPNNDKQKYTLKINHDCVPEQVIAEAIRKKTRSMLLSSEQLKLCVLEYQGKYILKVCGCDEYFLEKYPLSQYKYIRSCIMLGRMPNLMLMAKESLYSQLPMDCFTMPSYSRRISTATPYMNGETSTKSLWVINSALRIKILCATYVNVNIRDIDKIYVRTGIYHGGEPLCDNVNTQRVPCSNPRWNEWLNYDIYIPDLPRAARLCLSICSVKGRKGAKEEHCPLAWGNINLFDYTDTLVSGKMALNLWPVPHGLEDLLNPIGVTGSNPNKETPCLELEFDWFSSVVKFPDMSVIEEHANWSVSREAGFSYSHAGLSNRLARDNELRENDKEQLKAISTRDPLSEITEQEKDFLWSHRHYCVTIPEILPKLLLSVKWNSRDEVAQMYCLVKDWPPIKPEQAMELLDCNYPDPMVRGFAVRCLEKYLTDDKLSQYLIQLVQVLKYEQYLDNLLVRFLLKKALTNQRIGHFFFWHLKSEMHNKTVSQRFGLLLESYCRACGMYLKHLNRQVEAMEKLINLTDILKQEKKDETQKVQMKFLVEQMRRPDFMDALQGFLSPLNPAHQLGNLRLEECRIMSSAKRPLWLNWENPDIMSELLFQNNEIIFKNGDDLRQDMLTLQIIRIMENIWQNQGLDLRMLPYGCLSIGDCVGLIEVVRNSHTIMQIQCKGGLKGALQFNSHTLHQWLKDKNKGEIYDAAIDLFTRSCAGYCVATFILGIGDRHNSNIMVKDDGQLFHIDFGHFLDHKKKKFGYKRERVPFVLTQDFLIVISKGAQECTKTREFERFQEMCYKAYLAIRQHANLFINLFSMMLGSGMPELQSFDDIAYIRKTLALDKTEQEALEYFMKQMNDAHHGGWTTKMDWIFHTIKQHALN
T1 sequence (P27986 whole entry partner): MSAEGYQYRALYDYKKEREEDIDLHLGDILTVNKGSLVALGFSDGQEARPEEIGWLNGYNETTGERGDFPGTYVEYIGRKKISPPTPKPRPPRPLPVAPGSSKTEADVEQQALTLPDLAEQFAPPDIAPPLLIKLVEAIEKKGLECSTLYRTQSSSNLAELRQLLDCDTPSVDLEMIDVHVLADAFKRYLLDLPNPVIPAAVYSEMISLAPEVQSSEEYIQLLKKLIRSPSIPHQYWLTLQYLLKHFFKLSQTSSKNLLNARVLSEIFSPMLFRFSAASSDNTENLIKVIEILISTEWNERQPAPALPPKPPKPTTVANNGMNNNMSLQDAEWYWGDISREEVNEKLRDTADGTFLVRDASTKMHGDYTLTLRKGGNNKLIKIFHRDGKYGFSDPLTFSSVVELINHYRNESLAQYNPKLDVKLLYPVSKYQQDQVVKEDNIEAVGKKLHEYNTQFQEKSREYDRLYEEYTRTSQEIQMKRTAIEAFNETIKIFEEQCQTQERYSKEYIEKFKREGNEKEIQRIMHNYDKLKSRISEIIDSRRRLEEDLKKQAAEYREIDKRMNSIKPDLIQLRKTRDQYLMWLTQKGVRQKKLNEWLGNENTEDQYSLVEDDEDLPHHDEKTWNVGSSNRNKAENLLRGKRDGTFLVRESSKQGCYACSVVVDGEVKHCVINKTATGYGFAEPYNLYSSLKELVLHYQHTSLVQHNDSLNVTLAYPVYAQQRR

SMILES	IC50 (PI3K α)	tumor volume of xenograft tumors (xenograft tumors)	degree of G0/G1 arrest [1]
COC(=O)Nc1noc2cc(-c3nn(C(C)C)c4ncnc(N)c34)ccc12 [compound 20]	< 10 µM		
CC(C)n1nc(-c2ccc3oc(N)nc3c2)c2c(N)ncnc21 [compound 1]		cause a reduction in tumor volume of xenograft tumors	comparable or a greater degree of G0/G1 arrest
COC(=O)Nc1noc2ccc(-c3nn(C(C)C)c4ncnc(N)c34)cc12 [compound 19]	> 10 µM		
